Source: patent US20200085839A1, “COMBINATION OF IMMUNOTHERAPEUTICS AND BISFLUOROALKYL-1,4-BENZODIAZEPINONE COMPOUNDS FOR TREATING LYMPHOMAS” (Ayala Pharmaceuticals Inc., priority 2018, published 2020)

Columns and labels:
Assay in all cases: Soluble (shed) BCMA by ELISA
Type in all cases: cell-based, human
[1] = test system: SUDHL-8 cells (DLBCL)
Description: (§1) […] cell lines, comprising 9 subtypes of lymphomas (see Table 1), were seeded at 1×10^5 cells/well in a total volume of 250 μl into a 96-well plate. The cells were cultured in RPMI medium supplemented with 10% FCS. Compound (22) was added to the cell cultures at a concentration of 10 μM, 1 μM, 100 nM, 10 nM, 1 nM, 100 pM, 10 pM, 1 pM, and 100 fM, and cell lines (8 from Hadassah Medical Center, 31 from Eurofins) were incubated at 37° C. for 24 hours with Compound (22). Following incubation, the cells were collected and BCMA levels were evaluated on the cell surface for cell-bound BCMA. Cells were stained with an anti-BCMA antibody (PE anti-human 19F2 BCMA, Biolegend), and cell surface BCMA levels were determined by FACS analysis (Mean Fluorescence Intensity. Soluble BCMA levels were analyzed by ELISA (Human BCMA/TNFRSF17 DuoSet kit: R&D Systems).

[2] = test system: GA-10 cells (Burkitt's Lymphoma)
Description: as §1

[3] = test system: ST486 cells (DLBCL)
Description: as §1

[4] = test system: DOHH-2 cells (DLBCL)
Description: as §1

[5] = test system: L-248 cells (Hodgkin's Lymphoma)
Description: as §1

[6] = test system: JVM-2 cells (Mantle Cell Lymphoma)
Description: as §1

[7] = test system: Jiyoye cells (Burkitt's Lymphoma)
Description: as §1

[8] = test system: Namalwa cells (Burkitt's Lymphoma)
Description: as §1

[9] = test system: HT cells (DLBCL)
Description: as §1

[10] = test system: BCP-1 cells (B-cell Lymphoma)
Description: as §1

[11] = test system: Ramos cells (Burkitt's Lymphoma)
Description: as §1

[12] = test system: SUDHL-4 (Eurofins) cells (DLBCL)
Description: as §1

[13] = test system: BC-1 cells (B-cell Lymphoma)
Description: as §1

[14] = test system: SUDHL-10 cells (DLBCL)
Description: as §1

[15] = test system: RPMI-6666 cells (Hodgkin's Lymphoma)
Description: as §1

[16] = test system: SR cells (Anaplastic Large Cell Lymphoma)
Description: as §1

[17] = test system: EB-2 cells (Burkitt's Lymphoma)
Description: as §1

[18] = test system: Raji cells (Burkitt's Lymphoma)
Description: as §1

[19] = test system: U937 cells (Histiocytic Lymphoma)
Description: as §1

[20] = test system: EB-3 cells (Burkitt's Lymphoma)
Description: as §1

[21] = test system: Jeko-1 cells (Mantle Cell Lymphoma)
Description: as §1

[22] = test system: TUR cells (Histiocytic Lymphoma)
Description: as §1

[23] = test system: NU-DUL-1 cells (B-cell Lymphoma)
Description: as §1

[24] = test system: H9 cells (Cutaneous T-cell Lymphoma)
Description: as §1

[25] = Homo sapiens, read-out: Shed BCMA (pg/ml) EC50

## Cc1cccc2c1NC(=O)[C@@H](NC(=O)[C@H](CCC(F)(F)F)[C@H](CCC(F)(F)F)C(N)=O)N=C2c1cccc(F)c1 [Compound (22), (2R,3S)—N-((3S)-5-(3-fluorophenyl)-9-methyl-2-oxo-2,3-dihydro-1H-1,4-benzodiazepin-3-yl)-2,3-bis(3,3,3-trifluoropropyl)succinamide]
[1]
  Shed BCMA (pg/ml) % Reduction: 100%
[1]; Homo sapiens, SU-DHL-8, read-out: Shed BCMA (pg/ml) EC50
  EC50: 0.5 nM
[2]
  Shed BCMA (pg/ml) % Reduction: 83%
[2]; 1 nM, 24 h
  soluble BCMA 1 nM Compound (22): >2000
[2]; 10 nM, 24 h
  soluble BCMA 10 nM Compound (22): 800.8
[2]; 100 nM, 24 h
  soluble BCMA 100 nM Compound (22): 398.1
[2]; [25]
  EC50: 7.4 nM
[3]
  Shed BCMA (pg/ml) % Reduction: 90%
[3]; [25]
  EC50: 0.9 nM
[4]
  Shed BCMA (pg/ml) % Reduction: 93%
[4]; 1 nM, 24 h
  soluble BCMA 1 nM Compound (22): 1272.1
[4]; 10 nM, 24 h
  soluble BCMA 10 nM Compound (22): 136
[4]; 100 nM, 24 h
  soluble BCMA 100 nM Compound (22): 98.4
[4]; [25]
  EC50: 2.2 nM
[5]
  Shed BCMA (pg/ml) % Reduction: BLQ
[5]; [25]
  EC50: > 10000 nM
[6]
  Shed BCMA (pg/ml) % Reduction: 57%
[6]; [25]
  EC50: 75.3 nM
[7]; Homo sapiens, JIYOYE, read-out: Shed BCMA (pg/ml) EC50
  EC50: 2.3 nM
[7]; JIYOYE, 10 nM, 24 h
  soluble BCMA 10 nM Compound (22): 472.3
[7]; Jiyoye
  Shed BCMA (pg/ml) % Reduction: 81%
[7]; Jiyoye, 1 nM, 24 h
  soluble BCMA 1 nM Compound (22): 1707.7
[7]; Jiyoye, 100 nM, 24 h
  soluble BCMA 100 nM Compound (22): 373.1
[7]; Jiyoye, FIG. 8B
  soluble BCMA: decreased soluble BCMA
[8]; Homo sapiens, Namalwa, read-out: Shed BCMA (pg/ml) EC50
  EC50: 0.6 nM
[8]; NAMALWA, 10 nM, 24 h
  soluble BCMA 10 nM Compound (22): 66.6
[8]; Namalwa
  Shed BCMA (pg/ml) % Reduction: 95%
[8]; Namalwa, 1 nM, 24 h
  soluble BCMA 1 nM Compound (22): 87.5
[8]; Namalwa, 100 nM, 24 h
  soluble BCMA 100 nM Compound (22): 67.4
[9]
  Shed BCMA (pg/ml) % Reduction: 98%
[9]; 1 nM, 24 h
  soluble BCMA 1 nM Compound (22): 389.4
[9]; 10 nM, 24 h
  soluble BCMA 10 nM Compound (22): 99.4
[9]; 100 nM, 24 h
  soluble BCMA 100 nM Compound (22): 38
[9]; [25]
  EC50: 1 nM
[10]
  Shed BCMA (pg/ml) % Reduction: 94%
[10]; 1 nM, 24 h
  soluble BCMA 1 nM Compound (22): 1665.7
[10]; 10 nM, 24 h
  soluble BCMA 10 nM Compound (22): 1610 pg/mL
[10]; 100 nM, 24 h
  soluble BCMA 100 nM Compound (22): 460.6
[10]; FIG. 6B
  soluble BCMA: decreased soluble BCMA
[10]; [25]
  EC50: 48 nM
[11]
  Shed BCMA (pg/ml) % Reduction: 76%
[11]; 1 nM, 24 h
  soluble BCMA 1 nM Compound (22): >2000
[11]; 10 nM, 24 h
  soluble BCMA 10 nM Compound (22): 613.3
[11]; 100 nM, 24 h
  soluble BCMA 100 nM Compound (22): 504.3
[11]; [25]
  EC50: 8.6 nM
[12]
  Shed BCMA (pg/ml) % Reduction: 87%
[12]; Homo sapiens, SU-DHL-4, read-out: Shed BCMA (pg/ml) EC50
  EC50: 6.6 nM
[13]
  Shed BCMA (pg/ml) % Reduction: 30%
[13]; 1 nM, 24 h
  soluble BCMA 1 nM Compound (22): >2000
[13]; 10 nM, 24 h
  soluble BCMA 10 nM Compound (22): 1841.6
[13]; 100 nM, 24 h
  soluble BCMA 100 nM Compound (22): 878.6
[13]; Homo sapiens, BC1, read-out: Shed BCMA (pg/ml) EC50
  EC50: 84 nM
[14]
  Shed BCMA (pg/ml) % Reduction: 97%
[14]; Homo sapiens, SU-DHL10, read-out: Shed BCMA (pg/ml) EC50
  EC50: 0.9 nM
[15]
  Shed BCMA (pg/ml) % Reduction: 92%
[15]; [25]
  EC50: 9.1 nM
[16]
  Shed BCMA (pg/ml) % Reduction: BLQ
[16]; [25]
  EC50: > 10000 nM
[17]; EB2, 1 nM, 24 h
  soluble BCMA 1 nM Compound (22): >2000
[17]; EB2, 10 nM, 24 h
  soluble BCMA 10 nM Compound (22): 597.7
[17]; EB2, 100 nM, 24 h
  soluble BCMA 100 nM Compound (22): 479.4
[17]; EB-2
  Shed BCMA (pg/ml) % Reduction: 70%
[17]; Homo sapiens, EB2, EB-2, read-out: Shed BCMA (pg/ml) EC50
  EC50: 7.1 nM
[18]
  Shed BCMA (pg/ml) % Reduction: 99%
[18]; 1 nM, 24 h
  soluble BCMA 1 nM Compound (22): 81.4
[18]; 10 nM, 24 h
  soluble BCMA 10 nM Compound (22): 29.7
[18]; 100 nM, 24 h
  soluble BCMA 100 nM Compound (22): 26.3
[18]; [25]
  EC50: 0.3 nM
[19]
  Shed BCMA (pg/ml) % Reduction: BLQ
[19]; Homo sapiens, U-937, read-out: Shed BCMA (pg/ml) EC50
  EC50: > 10000 nM
[20]
  Shed BCMA (pg/ml) % Reduction: BLQ
[20]; [25]
  EC50: > 10000 nM
[21]; Homo sapiens, JeKo-1, read-out: Shed BCMA (pg/ml) EC50
  EC50: 1.1 nM
[21]; JEKO-1, 10 nM, 24 h
  soluble BCMA 10 nM Compound (22): 338
[21]; Jeko-1
  Shed BCMA (pg/ml) % Reduction: 76%
[21]; Jeko-1, 1 nM, 24 h
  soluble BCMA 1 nM Compound (22): 1245.6
[21]; Jeko-1, 100 nM, 24 h
  soluble BCMA 100 nM Compound (22): 305.6
[22]
  Shed BCMA (pg/ml) % Reduction: BLQ
[22]; [25]
  EC50: > 10000 nM
[23]
  Shed BCMA (pg/ml) % Reduction: 91%
[23]; [25]
  EC50: 1 nM
[24]
  Shed BCMA (pg/ml) % Reduction: BLQ
[24]; [25]
  EC50: > 10000 nM
